One assay relates to Glycine max. The assay is described as follows: Inhibition of soybean LOX using linoleic acid as substrate at 0.5 mM preincubated for 10 mins followed by substrate addition measured after 6 mins by spectrophotometric analysis.
Assay [1] in a line: Inhibition of soybean LOX using linoleic acid as substrate preincubated for 10 mins followed by substrate addition measured after 6 mins by spectrophotometric analysis. The arrangement: species or system Glycine max.
Another assay concerns the target Urease (Canavalia ensiformis, UniProt P07374). The assay is described as follows: Inhibition of jack beans urease assessed as hydrolysis of urea into ammonia preincubated for 10 mins followed by urea addition measured after 10 mins by Berthelot assay.
The target of assay [2] is Urease (Canavalia ensiformis) (UniProt P07374). Nature of the assay: Inhibition of jack beans urease assessed as hydrolysis of urea into ammonia at 0.5 mM preincubated for 10 mins followed by urea addition measured after 10 mins by Berthelot assay.
Chain of Urease (Canavalia ensiformis) (P07374 whole entry, looked up): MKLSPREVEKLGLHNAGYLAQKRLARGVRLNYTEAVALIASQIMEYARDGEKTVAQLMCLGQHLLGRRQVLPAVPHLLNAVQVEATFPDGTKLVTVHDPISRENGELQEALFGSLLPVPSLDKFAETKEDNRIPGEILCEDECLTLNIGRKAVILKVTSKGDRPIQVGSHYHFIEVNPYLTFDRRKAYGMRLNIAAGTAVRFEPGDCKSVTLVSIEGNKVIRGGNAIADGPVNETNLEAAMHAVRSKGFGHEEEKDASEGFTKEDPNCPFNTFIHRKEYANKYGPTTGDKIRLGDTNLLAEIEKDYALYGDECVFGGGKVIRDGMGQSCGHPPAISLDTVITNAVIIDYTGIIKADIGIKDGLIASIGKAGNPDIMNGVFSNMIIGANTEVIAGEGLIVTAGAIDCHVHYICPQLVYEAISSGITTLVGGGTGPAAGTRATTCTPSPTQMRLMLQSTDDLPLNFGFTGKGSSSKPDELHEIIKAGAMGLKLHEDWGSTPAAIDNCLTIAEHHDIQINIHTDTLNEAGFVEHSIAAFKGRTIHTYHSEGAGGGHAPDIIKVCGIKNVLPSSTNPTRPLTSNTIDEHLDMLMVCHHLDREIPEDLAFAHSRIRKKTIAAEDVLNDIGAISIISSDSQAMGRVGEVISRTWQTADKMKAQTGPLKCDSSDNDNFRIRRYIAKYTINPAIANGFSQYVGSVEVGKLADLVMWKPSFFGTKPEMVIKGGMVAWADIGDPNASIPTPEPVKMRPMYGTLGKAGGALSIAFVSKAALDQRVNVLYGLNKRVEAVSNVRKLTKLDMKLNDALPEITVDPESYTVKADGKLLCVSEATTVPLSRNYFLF

In ChEMBL document CHEMBL3621141, “Discovery of indole-based tetraarylimidazoles as potent inhibitors of urease with low antilipoxygenase activity” (Eur J Med Chem, 2015) one finds inhibition and IC50 data, which are given here for 16 molecules.

Chain of Urease (P07374 whole entry): as the sequence (P07374 whole entry, looked up) above

In turn, `O=c1cc(-c2ccccc2)oc2cc(O)c(O)c(O)c12` [BAICALEIN] showed an inhibition with Glycine max of 93.7%. This molecule also displayed an IC50 in assay [1] of 22.4 µM.

In the case of `Fc1ccc(-n2c(-c3c(-c4ccc(C(F)(F)F)cc4)[nH]c4ccccc34)nc(-c3ccccc3)c2-c2ccccc2)cc1`, the inhibition in the assay on Glycine max stood at 80.2%; in assay [2], 85.2%. Also, the IC50 was 0.16 µM at Urease and 106 µM in assay [1].

With `Fc1ccc(-n2c(-c3c(-c4ccc(Br)cc4)[nH]c4ccccc34)nc(-c3ccccc3)c2-c2ccccc2)cc1`, the inhibition in the assay with Glycine max worked out at 87.8%; in assay [2], 86.7%. Besides, the 50% inhibitory concentration (IC50) at Urease is 12.1 µM; in assay [1], 162 µM.

Turning to `COc1ccc(-n2c(-c3c(-c4ccc(Br)cc4)[nH]c4ccccc34)nc(-c3ccccc3)c2-c2ccccc2)cc1`, the inhibition with Glycine max worked out at 61.7%; in assay [2], 85.2%. For the same molecule, the IC50 at Urease is 29.1 µM; in assay [1], 206 µM.

`Cc1ccc(-n2c(-c3c(-c4ccccc4)[nH]c4ccc(Br)cc34)nc(-c3ccccc3)c2-c2ccccc2)cc1`: the inhibition with Glycine max stood at 81.4%. In addition, inhibition in assay [1] was half-maximal at 143 µM (IC50).

On to `Brc1ccc(-c2[nH]c3ccccc3c2-c2nc(-c3ccccc3)c(-c3ccccc3)n2-c2ccc(Br)cc2)cc1`, for which the inhibition with Glycine max came out at 61.1%; in assay [2], 87.8%. For the same molecule, the IC50 on Urease came out at 11.3 µM; in assay [1], 173 µM.

Consider `FC(F)(F)c1ccc(-c2[nH]c3ccccc3c2-c2nc(-c3ccccc3)c(-c3ccccc3)n2-c2ccc(Cl)cc2)cc1`, for which the values for the inhibition (in the assay with Glycine max; in assay [2]) were 62.1% and 70.3%, respectively. The IC50 was determined as 4.75 µM at Urease and 215 µM in assay [1].

In the case of `COc1ccc(-n2c(-c3c(-c4ccccc4)[nH]c4ccc(Br)cc34)nc(-c3ccccc3)c2-c2ccccc2)cc1`, the inhibition in the assay with Glycine max was determined as 57.5%; in assay [2], 88.7%. For the same molecule, the IC50 is 4.62 µM on Urease and 265 µM in assay [1].

With `Fc1ccc(-n2c(-c3c(-c4ccc(Cl)cc4)[nH]c4ccccc34)nc(-c3ccccc3)c2-c2ccccc2)cc1`, the inhibition in the assay on Glycine max was found to be 84.5%; in assay [2], 85.6%. Besides, the figures for the half-maximal inhibitory concentration (IC50) (at Urease; in assay [1]) were 0.44 µM and 89 µM, respectively.

On to `Brc1ccc2[nH]c(-c3ccccc3)c(-c3nc(-c4ccccc4)c(-c4ccccc4)n3-c3ccccc3)c2c1`, for which the inhibition with Glycine max was 97.2%. In assay [1], this molecule showed an IC50 of 134 µM.

`Brc1ccc(-n2c(-c3c(-c4ccccc4)[nH]c4ccc(Br)cc34)nc(-c3ccccc3)c2-c2ccccc2)cc1`: the inhibition came to 78.5% in the assay with Glycine max and 93.2% in assay [2]. For the same molecule, the values for the IC50 (at Urease; in assay [1]) were 0.15 µM and 178 µM, respectively.

`FC(F)(F)c1ccc(-c2[nH]c3ccccc3c2-c2nc(-c3ccccc3)c(-c3ccccc3)n2-c2ccccc2)cc1` returned an inhibition with Glycine max of 86.2%. The molecule further had a half-maximal inhibitory concentration (IC50) in assay [1] of 117 µM.

On to `Clc1ccc(-c2[nH]c3ccccc3c2-c2nc(-c3ccccc3)c(-c3ccccc3)n2-c2ccccc2)cc1`, for which the inhibition in the assay with Glycine max was found to be 58.3%; in assay [2], 80.3%. The IC50 worked out at 0.37 µM at Urease and 276 µM in assay [1].

Take `Cc1ccc(-n2c(-c3c(-c4ccc(C(F)(F)F)cc4)[nH]c4ccccc34)nc(-c3ccccc3)c2-c2ccccc2)cc1`: the inhibition in the assay on Glycine max amounted to 90.3%; in assay [2], 79.7%. Moreover, the 50% inhibitory concentration (IC50) amounted to 0.12 µM on Urease and 83 µM in assay [1].

In the case of `Clc1ccc(-n2c(-c3c(-c4ccccc4)[nH]c4ccc(Br)cc34)nc(-c3ccccc3)c2-c2ccccc2)cc1`, the inhibition was 83.2% in the assay with Glycine max and 87.8% in assay [2]. Further, the half-inhibitory concentration (IC50) on Urease turned out to be 4.66 µM; in assay [1] it was 101 µM.

With `Brc1ccc(-c2[nH]c3ccccc3c2-c2nc(-c3ccccc3)c(-c3ccccc3)n2-c2ccccc2)cc1`, the inhibition worked out at 59.3% in the assay with Glycine max and 89.4% in assay [2]. The results for the IC50 (on Urease; in assay [1]) were 4.81 µM and 197 µM, respectively.
